Assay results from patent publication US10011562B2, “Long-chain dimethylaniline derivative compounds, their preparation methods, self-assembled textures, and uses thereof” (WEST CHINA HOSPITAL, SICHUAN UNIVERSITY, priority 2014, dated 2018).
Structures can show the parent of a compound that is named as a salt.

Columns and labels:
[1] = system: sciatic nerve of rats; assay: Second local anesthetic experiment of rats: blocking of sciatic nerve, mechanical withdrawal threshold (VFH); type: in vivo; details: 0.2 ml of formulated solution injected close to sciatic nerve, lidocaine 2% (84 mmol/L)
Protocol: (§1) The tested rats were placed on bench board and allowed to inhale 5% isoflurane. After body-righting reflex abolition, rats are allowed to continue inhaling 1.5% isoflurane, to keep anesthesia. Keeping left-lateral position, their corresponding injection area sacrococygeal region was shaved, then routine sterilization and draping were performed. Two osseous anatomic landmarks greater trochanter of femur and tuber is chiadicum were laid hands, and the middle point of this line was the needle insertion position. If skin was taut, 1 ml injector was inserted along perpendicular of skin. When needlepoint reached hucklebone, the insertion was finished. Once no blood return was found as suction, 0.2 ml drug solution was slowly injected. Needle was lifted, and is oflurane was shut off. Animals were placed in observation cage until they naturally awakened.
Rats were placed in transparent observation cages with a bottom of smooth metal sieve plate, and the corrected von frey filament was used to stimulate the foot lateral skin of rats (innervated region of sciatic nerve) from down to up. […] For each stimulation, slightly bent of filament was used as a standard, or rats moved aside this side of limbs. Otherwise, once the stimulation time reached 3 s, operator stopped stimulating. Three tests were carried out for each time point, and the interval between two tests was 5 min, to avoid sensibilization. […]

[2] = system: sciatic nerve of rats; assay: Second local anesthetic experiment of rats: blocking of sciatic nerve, motor function (PET); type: in vivo; details: 0.2 ml of formulated solution injected close to sciatic nerve, lidocaine 2% (84 mmol/L)
Protocol: as §1
The hindlimb postural extensor thrust (PET) was used for evaluation. Rats were lifted vertically and their hindlimbs of injection side stepped on the top of electronic balance. At this time, the postural extensor thrust was shown as the value of balance. When limbs were completely paralytic, the digital reading was the weight of limbs, about 20 g. […]

[3] = system: sciatic nerve of rats; assay: Third local anesthetic experiment of rats: hydrogels embedded near the sciatic nerve, motor function (PET); type: in vivo
Source text: (§2) The hindlimb postural extensor thrust (PET) was used for evaluation. Rats were lifted vertically and their hindlimbs of injection side stepped on the top of electronic balance. At this time, the postural extensor thrust was shown as the value of balance. When limbs were completely paralytic, the digital reading was the weight of limbs, about 20 g. If the test value was more than half of the difference between the baseline and the limbs weight, the motor function was taken as recovery; If less than or equal to half of the difference, the motor function was taken as deprivation.
(§3) The interval between completion of injection and the time point that the motor function was firstly deprivated was the time of effective motor blocking; the interval between completion of injection and the time point that the motor function was firstly recovered was the time of ineffective motor blocking; their difference was the hold time of motor blocking.
(§4) 25 mmol/L transparent uniform hydrogels of products obtained in Examples 7-10 and 13-32 were prepared under sterile conditions, as the method of Example 45, and kept for use.
(§5) Above hydrogels, positive control lidocaine, and negative control normal saline were respectively administrated to 35 groups of test rats fully adapted to experiment environment, with five rats for each group. The administration dosage is: the concentration of lidocaine group being 2% aqueous solution (84 mmol/L). The injection volume of each rat receiving drugs or the control was […], and the control was injected to near the sciatic nerve of rats by guidance of nerve locator; by surgery, the gels were embedded near the sciatic nerve of experimental rats after general anesthesia using sevoflurane. Specific procedures and the evaluation criterion for local anesthetic effect were same as mentioned in Example 60.

[4] = system: sciatic nerve of rats; assay: First local anesthetic experiment of rats: blocking of sciatic nerve, mechanical withdrawal threshold (VFH, von Frey filaments); type: in vivo
Protocol: (§6) Selected above micelle, positive control lidocaine, and negative control normal saline were respectively administrated to 28 groups of test rats fully adapted to experiment environment, with five rats for each group. The administration dosage is: the concentration of lidocaine group being 2% aqueous solution (84 mmol/L), and the concentration of tested drug being 5 mmol/L. The injection volume of each rat receiving drugs or the control was 0.2 ml, and the drug or the control was injected to close to sciatic nerve of rats by guidance of nerve locator.
as §1, with “Once no blood return was found as suction, 0.2 ml drug solution was slowly injected.” left out
(§7) Rats were placed in transparent observation cages with a bottom of smooth metal sieve plate, and the corrected von frey filament was used to stimulate the foot lateral skin of rats (innervated region of sciatic nerve) from down to up. […] For each stimulation, slightly bent of filament was used as a standard, or rats moved aside this side of limbs. Otherwise, once the stimulation time reached 3 s, operator stopped stimulating. Three tests were carried out for each time point, and the interval between two tests was 5 min, to avoid sensibilization.
(§8) If the mechanical withdrawal threshold value was more than 60 g, the nerve blocking was considered as effective.

[5] = system: sciatic nerve of rats; assay: First local anesthetic experiment of rats: blocking of sciatic nerve, motor function by hindlimb postural extensor thrust (PET); type: in vivo
Protocol: as §6
as §1, with “Once no blood return was found as suction, 0.2 ml drug solution was slowly injected.” left out
as §2, §3

[6] = system: sciatic nerve of rats; assay: Third local anesthetic experiment of rats: hydrogels embedded near the sciatic nerve, mechanical withdrawal threshold (VFH); type: in vivo
Protocol: as §7, §8, §4, §5

[7] = system: Na+ channels; details: with the addition of surface-active agent or with the help of forming micelles; cited from earlier work
[8] = rats, 25 mmol/L hydrogel, 0.2 g embedded by surgery near sciatic nerve, lidocaine 2% (84 mmol/L) injected
[9] = rats, 0.2 ml injected close to sciatic nerve, tested drug 5 mmol/L solution (micelle), lidocaine 2% (84 mmol/L), threshold above 60 g
[10] = rats, 0.2 ml injected close to sciatic nerve, tested drug 5 mmol/L solution (micelle), lidocaine 2% aqueous solution (84 mmol/L)
[11] = rats, 0.2 ml injected close to sciatic nerve, tested drug 5 mmol/L solution (micelle), lidocaine 2% (84 mmol/L)

SMILES | Effective local anesthetic time [1] [min] | The hold time of sensation blocking [1] [h] | The hold time of motor blocking [2] [h] | The hold time of motor blocking [3, 8] [h] | The hold time of sensation blocking [4, 9] [h] | Effective local anesthetic time [4, 10] [min] | The hold time of motor blocking [5, 11] [h] | Effective local anesthetic time [6, 8] [min] | The hold time of sensation blocking [6, 8] [h] | local anesthetic actions lasting [7] | The hold time of motor blocking ([3]; rat, in vivo) [h] | Effective local anesthetic time ([4]; rat, in vivo) [min] | The hold time of sensation blocking ([4]; rat, in vivo) [h] | The hold time of motor blocking ([5]; rat, in vivo) [h] | Effective local anesthetic time ([6]; rat, in vivo) [min] | The hold time of sensation blocking ([6]; rat, in vivo) [h]
CCN(CC)CC(=O)Nc1c(C)cccc1C [2% lidocaine hydrochloride, lidocaine hydrochloride, reference compound] | 1 | 2 | 2 | 2 | 2 | 1 | 2 | 1 | 2 | – | – | – | – | – | – | –
CC[N+](CC)(CC)CC(=O)Nc1c(C)cccc1C.[Br-] [QX314] | – | – | – | – | – | – | – | – | – | more than 8 hours | – | – | – | – | – | –
CCCCCCCCCCCCOC(=O)OCC[N+](CC)(CC)CC(=O)Nc1c(C)cccc1C [Example26product] | – | – | – | – | – | – | – | – | – | – | 77 | 20 | 80 | 80 | 88 | 81
CCCCCCCCCCCCCCCC(=O)OCC[N+](CC)(CC)CC(=O)Nc1c(C)cccc1C [Example8product] | – | – | – | 82 | 73 | 18 | 70 | 70 | 92 | – | – | – | – | – | – | –
CCCCCCCCCCCC(=O)OCC[N+](CC)(CC)CC(=O)Nc1c(C)cccc1C [Example7product] | – | – | – | 80 | 75 | 20 | 70 | 60 | 90 | – | – | – | – | – | – | –
CCCCCCCCCCCCCCOC(=O)OCC[N+](CC)(CC)CC(=O)Nc1c(C)cccc1C [Example28product] | – | – | – | – | – | – | – | – | – | – | 79 | 20 | 76 | 79 | 88 | 83
CCCCCCCCOC(=O)OCC[N+](CC)(CC)CC(=O)Nc1c(C)cccc1C [Example17product] | – | – | – | – | – | – | – | – | – | – | 82 | 16 | 82 | 62 | 63 | 85
CCCCCCCCOC(=O)OCC[N+](CC)(CC)CC(=O)Nc1c(C)cccc1C [Example16product] | – | – | – | – | – | – | – | – | – | – | 82 | 18 | 85 | 62 | 56 | 82
CCCCCCCCCCCCCCCCOC(=O)OCC[N+](CC)(CC)CC(=O)Nc1c(C)cccc1C [Example30product] | – | – | – | – | – | – | – | – | – | – | 86 | 19 | 74 | 78 | 95 | 87
